Test: Hair switch volume-down test (switches dosed, combed straight, dried overnight, imaged)
Protocol: Dark brown European wavy#6 switches of length 25 cm and weight 2 gms (from the same batch of switches), were dosed with 0.2 ml of a 2% solution of monoglucosamine adipate. Control switches were treated with water.
All switches were combed straight and left to dry overnight.
When dry the switches were combed straight and pictures taken. […] The percentage benefit (i.e. decrease in volume) with respect to control (water) is also given.

[1] = 0.2 ml of a 2% solution on 25 cm, 2 gms switches, combed straight, dried overnight

Substance: monoglucosamine adipate
- % benefit (decrease in volume with respect to control (water)) [1]: 8.0%
- Volume (projection of the switch image on to the screen) [1]: 13047 mm^2
- hair volume-down benefit (2% solution vs water control, result in words): significant hair volume-down benefit

From US10034824B2, “Hair shaping composition” (Conopco, Inc., priority 2014, dated 2018)
